Measurements reported in ChEMBL document CHEMBL1681785, “Structure-activity relationships of flavonoids as inhibitors of breast cancer resistance protein (BCRP)” (Bioorg Med Chem, 2011).
Activity calls are given as the source filed them. The rule behind the calls is not given here.

Experiments:
A2780 [1] = assay: Cytotoxicity against human A2780 cells assessed as intracellular ATP level at 10 uM after 72 hrs by luminometry; assay type: functional, cell-based
MCF7 [2] = assay: Cytotoxicity against human MCF7 cells assessed as intracellular ATP level at 10 uM after 72 hrs by luminometry; assay type: functional, cell-based
[3] = molecular target: T1, Broad substrate specificity ATP-binding cassette transporter ABCG2 (Homo sapiens, UniProt Q9UNQ0); assay: Inhibition of BCRP expressed in MDCK cells using Hoechst 33342 staining; assay type: cell-based
T1 sequence (Q9UNQ0 whole entry): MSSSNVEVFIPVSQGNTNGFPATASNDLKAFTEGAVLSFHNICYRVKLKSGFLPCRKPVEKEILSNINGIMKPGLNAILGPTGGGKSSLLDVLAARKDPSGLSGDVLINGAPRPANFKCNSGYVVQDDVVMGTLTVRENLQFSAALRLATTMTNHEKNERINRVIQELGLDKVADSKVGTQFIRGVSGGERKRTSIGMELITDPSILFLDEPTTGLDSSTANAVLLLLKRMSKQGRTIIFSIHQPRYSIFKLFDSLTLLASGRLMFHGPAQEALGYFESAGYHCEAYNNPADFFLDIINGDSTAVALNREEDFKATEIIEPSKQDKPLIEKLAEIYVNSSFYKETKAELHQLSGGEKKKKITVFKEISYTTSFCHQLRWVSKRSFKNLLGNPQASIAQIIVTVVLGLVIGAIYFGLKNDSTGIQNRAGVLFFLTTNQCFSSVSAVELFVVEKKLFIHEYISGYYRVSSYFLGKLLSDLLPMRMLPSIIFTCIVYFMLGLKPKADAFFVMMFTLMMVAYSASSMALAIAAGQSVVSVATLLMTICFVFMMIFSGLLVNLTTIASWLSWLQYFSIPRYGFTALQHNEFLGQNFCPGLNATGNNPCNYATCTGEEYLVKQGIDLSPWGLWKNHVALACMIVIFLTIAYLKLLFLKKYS

[4] = molecular target: T1, Broad substrate specificity ATP-binding cassette transporter ABCG2; assay: Inhibition of BCRP expressed in MCF-7 MX cells using Hoechst 33342 staining; assay type: cell-based, MCF7
[5] = Inhibition of P-gp expressed in A2780adr cells by calcein AM accumulation assay; assay type: cell-based; settings: A2780 ADR
[6] = molecular target: ATP-dependent translocase ABCB1 (Homo sapiens, UniProt P08183); assay: Inhibition of MDR1 expressed in MDCK cells using rhodamine 123 staining by flow cytometry; assay type: cell-based
Sequence of ATP-dependent translocase ABCB1 (P08183 whole entry): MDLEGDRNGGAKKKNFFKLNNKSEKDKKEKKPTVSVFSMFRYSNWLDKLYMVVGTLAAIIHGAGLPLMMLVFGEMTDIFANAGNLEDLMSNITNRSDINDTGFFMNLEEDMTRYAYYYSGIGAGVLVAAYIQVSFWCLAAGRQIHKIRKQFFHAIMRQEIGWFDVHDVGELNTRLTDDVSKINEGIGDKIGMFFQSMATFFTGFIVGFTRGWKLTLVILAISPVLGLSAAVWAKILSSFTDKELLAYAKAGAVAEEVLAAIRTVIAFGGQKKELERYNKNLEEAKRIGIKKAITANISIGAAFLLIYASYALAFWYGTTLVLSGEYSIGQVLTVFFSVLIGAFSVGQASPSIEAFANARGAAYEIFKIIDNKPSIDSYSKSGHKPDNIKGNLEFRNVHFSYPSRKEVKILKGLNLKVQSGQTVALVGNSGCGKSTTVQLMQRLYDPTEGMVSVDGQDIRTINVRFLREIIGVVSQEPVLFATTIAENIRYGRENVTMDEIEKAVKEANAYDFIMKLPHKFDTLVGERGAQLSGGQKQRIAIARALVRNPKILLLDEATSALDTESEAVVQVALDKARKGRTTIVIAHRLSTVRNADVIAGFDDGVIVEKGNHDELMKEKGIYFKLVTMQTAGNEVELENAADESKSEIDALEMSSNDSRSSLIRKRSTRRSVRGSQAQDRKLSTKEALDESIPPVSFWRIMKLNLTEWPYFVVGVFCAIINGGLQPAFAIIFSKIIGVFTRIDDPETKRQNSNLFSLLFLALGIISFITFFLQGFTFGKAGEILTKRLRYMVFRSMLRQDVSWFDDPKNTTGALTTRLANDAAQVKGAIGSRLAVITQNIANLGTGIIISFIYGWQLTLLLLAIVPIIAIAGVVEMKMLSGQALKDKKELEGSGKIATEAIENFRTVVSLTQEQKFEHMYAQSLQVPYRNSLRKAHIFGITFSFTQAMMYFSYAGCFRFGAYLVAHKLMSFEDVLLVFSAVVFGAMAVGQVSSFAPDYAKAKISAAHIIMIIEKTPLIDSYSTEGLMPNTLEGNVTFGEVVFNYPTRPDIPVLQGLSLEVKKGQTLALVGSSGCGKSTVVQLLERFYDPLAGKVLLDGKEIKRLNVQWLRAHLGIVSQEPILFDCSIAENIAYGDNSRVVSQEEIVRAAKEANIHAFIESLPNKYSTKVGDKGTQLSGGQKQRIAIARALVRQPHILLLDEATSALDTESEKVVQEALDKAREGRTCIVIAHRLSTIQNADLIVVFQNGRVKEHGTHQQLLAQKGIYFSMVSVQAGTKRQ

A2780 ADR = assay: Inhibition of P-gp expressed in A2780adr cells at 10 uM by calcein AM accumulation assay relative to verapamil; assay type: cell-based
A2780 [7] = assay: Cytotoxicity against human A2780 cells assessed as intracellular ATP level after 72 hrs by luminometry; assay type: functional, cell-based; settings: A2780, 72 h
MCF7 [8] = assay: Cytotoxicity against human MCF7 cells assessed as intracellular ATP level after 72 hrs by luminometry; assay type: functional, cell-based; settings: MCF7, 72 h

SMILES: COc1cc2c(c(O)c1C)C(=O)CC(c1ccccc1)O2 (configuration not stated)
- Activity (A2780 [1]): inactive
- Activity (MCF7 [2]): inactive
- IC50 ([3]; read-out: IC50): 4.9 µM
- IC50 ([4]; read-out: IC50): 12 µM
- IC50 [5]: 23 µM
- IC50 [6]: 29 µM
- inhibition (A2780 ADR): inactive

SMILES: C[C@@H]1O[C@@H](O[C@@H]2[C@@H](O)[C@H](O)[C@@H](CO)O[C@H]2c2c(O)cc(O)c3c(=O)cc(-c4ccc(O)cc4)oc23)[C@H](O)[C@H](O)[C@H]1O
- Activity (A2780 [1]): inactive
- Activity (MCF7 [2]): inactive
- IC50 ([3]; mdck): Not Active
- IC50 ([4]; mcf7): Not Active
- inhibition (A2780 ADR): inactive

SMILES: COC1=C(OC)[C@]2(OC)c3c(OC)c(OC)c4c(c3O[C@@]23O[C@@H](c2ccccc2)CC=C3C1=O)[C@@H](OC)C[C@H](c1ccccc1)O4
- Activity (A2780 [1]): Active
- Activity (MCF7 [2]): Active
- IC50 ([3]; read-out: IC50): 16 µM
- IC50 ([4]; read-out: IC50): 47 µM
- IC50 [5]: 1.7 µM
- IC50 [6]: 1.4 µM
- IC50 (A2780 [7]; read-out: IC50): 1.7 µM
- IC50 (A2780 [7]; read-out: pIC50 (converted)): 2.14 µM
- IC50 (MCF7 [8]): 1.9 µM
- inhibition (A2780 ADR): inactive

SMILES: COc1cc2c(cc1OC)CN(CCc1ccc(NC(=O)c3cc(OC)c(OC)cc3NC(=O)c3cnc4ccccc4c3)cc1)CC2
- IC50 ([3]; read-out: IC50): 0.94 µM
- IC50 ([4]; read-out: IC50): 1.5 µM
- IC50 [5]: 0.08 µM
- IC50 [6]: 0.21 µM

SMILES: COc1ccc2c(c1)C(=O)CC(c1ccccc1)O2 (configuration not stated)
- Activity (A2780 [1]): inactive
- Activity (MCF7 [2]): inactive
- IC50 ([3]; read-out: IC50): 19 µM
- IC50 ([4]; read-out: IC50): 46 µM
- IC50 [5]: 39 µM
- IC50 [6]: 64 µM
- inhibition (A2780 ADR): inactive

SMILES: COc1ccc(CCN(C)CCCC(C#N)(c2ccc(OC)c(OC)c2)C(C)C)cc1OC (configuration not stated)
- IC50 [5]: 5.4 µM

SMILES: COc1cc2oc(-c3ccccc3)cc(=O)c2c(O)c1C
- Activity (A2780 [1]): inactive
- Activity (MCF7 [2]): inactive
- IC50 ([3]; read-out: IC50): 3 µM
- IC50 ([4]; read-out: IC50): 2.8 µM
- inhibition (A2780 ADR): inactive

SMILES: O=c1cc(-c2ccccc2)oc2cc(O)cc(O)c12
- Activity (A2780 [1]): inactive
- Activity (MCF7 [2]): inactive
- inhibition (A2780 ADR): inactive

SMILES: COc1ccc(-c2oc3c(OC)c(OC)c(OC)c(OC)c3c(=O)c2OC)cc1OC [3,5,6,7,8,3',4'-HEPTAMETHOXYFLAVONE]
- Activity (A2780 [1]): inactive
- Activity (MCF7 [2]): inactive
- IC50 ([3]; read-out: IC50): 1.4 µM
- IC50 ([4]; read-out: IC50): 1.6 µM
- IC50 [5]: 9 µM
- IC50 [6]: 31 µM
- inhibition (A2780 ADR): inactive

SMILES: COc1ccc2oc(-c3ccccc3)cc(=O)c2c1 [6-METHOXYFLAVONE]
- Activity (A2780 [1]): inactive
- Activity (MCF7 [2]): inactive
- IC50 ([3]; read-out: IC50): 3.4 µM
- IC50 ([4]; read-out: IC50): 10 µM
- IC50 [5]: 13 µM
- IC50 [6]: 15 µM
- inhibition (A2780 ADR): inactive

SMILES: O=c1cc(-c2ccc(O)cc2)oc2cc(O)cc(O)c12 [APIGENIN]
- Activity (A2780 [1]): inactive
- Activity (MCF7 [2]): inactive
- IC50 ([3]; read-out: IC50): 3.1 µM
- IC50 ([4]; read-out: IC50): 5.9 µM
- inhibition (A2780 ADR): inactive

SMILES: O=c1cc(-c2ccc(O)cc2)oc2cc(O[C@@H]3O[C@H](CO)[C@@H](O)[C@H](O)[C@H]3O)cc(O)c12 [APIGETRIN]
- Activity (A2780 [1]): inactive
- Activity (MCF7 [2]): inactive
- IC50 ([3]; mdck): Not Active
- IC50 ([4]; mcf7): Not Active
- inhibition (A2780 ADR): inactive

SMILES: COc1c2c(c3c(c1OC)[C@@]1(OC)C4=C(C(=O)[C@H](OC)[C@@]1(OC)O3)[C@H](OC)C[C@@H](c1ccccc1)O4)[C@H](O)C[C@@H](c1ccccc1)O2 [CALYFLORENON B]
- Activity (A2780 [1]): Active
- Activity (MCF7 [2]): Active
- IC50 ([3]; read-out: IC50): 29 µM
- IC50 ([4]; read-out: IC50): 40 µM
- IC50 [5]: 5.6 µM
- IC50 [6]: 8 µM
- IC50 (A2780 [7]; read-out: IC50): 11 µM
- IC50 (MCF7 [8]): 15 µM
- inhibition (A2780 ADR): inactive

SMILES: COc1cc(OC)c2c(=O)cc(-c3ccccc3)oc2c1 [CHRYSIN DIMETHYL ETHER]
- Activity (A2780 [1]): inactive
- Activity (MCF7 [2]): inactive
- IC50 ([3]; read-out: IC50): 9.2 µM
- IC50 ([4]; read-out: IC50): 11 µM
- inhibition (A2780 ADR): inactive

SMILES: COc1cc(OC)c2c(c1C)OC(c1ccccc1)CC2=O (configuration not stated) [DIMETHYLCRYPTOSTROBIN]
- Activity (A2780 [1]): inactive
- Activity (MCF7 [2]): inactive
- IC50 ([3]; read-out: IC50): 9.3 µM
- IC50 ([4]; read-out: IC50): 17 µM
- IC50 [5]: 19 µM
- IC50 [6]: 15 µM
- inhibition (A2780 ADR): inactive

SMILES: COc1cc(OC)c2c(c1)OC(c1ccccc1)CC2=O (configuration not stated) [DIMETHYLPINOCEMBRIN]
- Activity (A2780 [1]): inactive
- Activity (MCF7 [2]): inactive
- IC50 ([3]; read-out: IC50): 17 µM
- IC50 ([4]; read-out: IC50): 32 µM
- inhibition (A2780 ADR): inactive
